≈ marks a conversion by molar mass, not a printed value. Read-outs that look alike come from different tables or passages of the source.
Legend:
[1] = tested on: Ba/F3 cells KRAS G12D; assay: Ba/F3 proliferation assay (KRAS G12D); type: cell-based; conditions: Mus musculus, BaF3, 72 h, AlamarBlue viability
Description: (§1) Ba/F3 cells are ordered from DSMZ (ACC300, Lot17) and grown in RPMI-1640 (ATCC 30-2001)+10% FCS+10 ng/mL IL-3 at 37° C. in 5% […] atmosphere. Plasmids containing KRASG12 mutants (i.e. […], G12C, G12V) are obtained from GeneScript. To generate KRASG12-dependent Ba/F3 models, Ba/F3 cells are transduced with retroviruses containing vectors that harbor KRASG12 isoforms. Platinum-E cells (Cell Biolabs) are used for retrovirus packaging. Retrovirus is added to Ba/F3 cells. To ensure infection, 4 μg/mL polybrene is added and cells are spinfected. Infection efficiency is confirmed by measuring GFP-positive cells using a cell analyzer. Cells with an infection efficiency of 10% to 20% are further cultivated and puromycin selection with 1 μg/mL is initiated. As a control, parental Ba/F3 cells are used to show selection status. Selection is considered successful when parental Ba/F3 cells cultures died. To evaluate the transforming potential of KRASG12 mutations, the growth medium is no longer supplemented with IL-3. Ba/F3 cells harboring the empty vector are used as a control. Approximately ten days before conducting the experiments, puromycin is left out.
(§2) For proliferation assays, Ba/F3 cells are seeded into 384-well plates at 1.5×1 (M cells/60 μL in growth media (RPMI-1640+10% FCS). Compounds (10 mM stock in DMSO) are added at logarithmic dose series using the ECHO acoustic liquid handler system (Beckman Coulter), normalizing for added DMSO and including DMSO controls. All compound treatments are performed in technical duplicates. For the TO time point measurement, untreated cells are analyzed at the time of compound addition. Treated cells are incubated for 72 h at 37° C. with 5% CO2 and cell viability is measured in the PerkinElmer Envision Multimode Reader using AlamarBlue™ (ThermoFisher) viability stain. Viability (stated as percent of control) is defined as relative fluorescence units RFU of each well divided by the RFU of cells in DMSO controls. IC50 values are determined from viability measurements by non-linear regression using a four-parameter model.

[2] = tested on: Ba/F3 cells KRAS G12C; assay: Ba/F3 proliferation assay (KRAS G12C); type: cell-based; conditions: Mus musculus, BaF3, 72 h, AlamarBlue viability
Description: as §1, §2

[3] = target: KRAS (G12D)::SOS1 protein-protein interaction (Homo sapiens (Human), UniProt P01116, G12D); assay: KRAS::SOS1 AlphaScreen binding assay (KRAS G12D); conditions: GDP
Text: This assay can be used to examine the potency with which compounds according to the invention binding to (mutated) KRAS inhibit the protein-protein interaction between SOS1 and (mutated) KRAS e.g. KRAS G12C, KRAS G12D. […] Low IC50 values in this assay setting are indicative of strong inhibition of protein-protein interaction between SOS1 and KRAS:
These assays measure the inhibitory effect of compounds on KRAS mutant protein-protein interactions using the Alpha Screen technology by Perkin Elmer.
The following (mutant) enzyme forms of KRAS and interacting proteins are used in these assays at the given concentrations:
KRAS (G12D) 1-169, N-terminal 6His-tag, C-terminal avi-tag (Xtal BioStructures, Inc.); final assay concentration 10 nM and SOS1 564-1049, N-terminal 229 GST-tag, TEV cleavage site (Viva Biotech Ltd); final assay concentration 5 nM;
Test compounds dissolved in DMSO are dispensed onto assay plates (Proxiplate 384 PLUS, white, PerkinElmer; 6008289) using an Access Labcyte Workstation with the Labcyte Echo 55x. For the chosen highest assay concentration of 100 μM, 150 nL of compound solution are transferred from a 10 mM DMSO compound stock solution. A series of eleven fivefold dilutions per compound are transferred to the assay plate, compound dilutions are tested in duplicates. DMSO are added as backfill to a total volume of 150 nL.
The assays run on a fully automated robotic system in a darkened room below 100 Lux. To 150 nl of compound dilution 10 μl of a mix including KRAS mutant protein, SOS1 (final assay concentrations see above) and GDP nucleotide (Sigma G7127; final assay concentration 10 μM) in assay buffer (1×PBS, 0.1% BSA, 0.05% Tween 20) are added into columns 1-24.
After 30 minutes incubation time 5 μl of Alpha Screen bead mix in assay buffer are added into columns 1-23. Bead mix consists of AlphaLISA Glutathione Acceptor Beads (PerkinElmer, Cat No AL109) and AlphaScreen Streptavidin Donor Beads (PerkinElmer Cat No 6760002) in assay buffer at a final assay concentration of 10 μg/mL each.
Plates are kept at room temperature in a darkened incubator. After an additional 60 minutes incubation time the signal is measured in a PerkinElmer Envision HTS Multilabel Reader using the AlphaScreen specs from PerkinElmer.
Each plate contains up to 16 wells of a negative control depending on the dilution procedure (platewise or serial) (DMSO instead of test compound; with KRAS mutant::SOS1 GOP mix and bead mix; column 23) and 16 wells of a positive control (DMSO instead of test compound; with KRAS mutant::SOS1 GOP mix w/o bead mix; column 24).
As internal control known inhibitors of KRAS mutant::SOS1 interaction can be measured on each compound plate.
IC50 values are calculated and analyzed with Boehringer Ingelheim's MEGALAB C50 application using a 4 parametric logistic model.
Tables of example compounds disclosed herein contain IC50 values determined using the above assays (see Table 43).

[4] = Solubility measurement (DMSO solution precipitation method); type: physicochemical; conditions: aqueous buffer, kinetic from dmso stock
Description: A 10 mM DMSO stock solution of a test compound is used to determine its aq. solubility. The DMSO solution is diluted with an aq. medium (McIlvaine buffer with pH=4.5 or 6.8) to a final concentration of 250 μM. After 24 h of shaking at ambient temperature a potentially formed precipitate is removed by filtration. The concentration of the test compound in the filtrate is determined by LC-UV methods by calibrating the signal to the signal of a reference solution with complete dissolution of the test compound in acetonitrile/water (1:1) with known concentration.

[5] = Metabolic (microsomal) stability assay, human liver microsomes (HLM); type: in vitro ADME; conditions: 1 μM test compound, predicted clearance as percent of liver blood flow
Description: The metabolic degradation of the test compound is assayed at 37° C. with pooled liver microsomes (mouse (MLM), rat (RLM) or human (HLM)). The final incubation volume of 48 μL per time point contains TRIS buffer (pH 7.5; 0.1 M), magnesium chloride (6.5 mM), microsomal protein (0.5 mg/mL for mouse/rat, 1 mg/mL for human specimens) and the test compound at a final concentration of 1 μM. Following a short preincubation period at 37° C., the reactions are initiated by addition of 12 μL beta-nicotinamide adenine dinucleotide phosphate, reduced form (NADPH, 10 mM) and terminated by transferring an aliquot into solvent after different time points (0, 5, 15, 30, 60 min). Additionally, the NADPH-independent degradation is monitored in incubations without NADPH, terminated at the last time point by addition of acetonitrile. The quenched incubations are pelleted by centrifugation (4,000 rpm, 15 min). An aliquot of the supernatant is assayed by LC-MS/MS to quantify the concentration of parent compound in the individual samples.
In vitro intrinsic clearance (CLint,in vitro) is calculated from the time course of the disappearance of the test drug during the microsomal incubation. Each plot is fitted to the first-order elimination rate constant as C(t)=C0*exp(−ke*t), where C(t) and C0 are the concentration of unchanged test drug at incubation time t and that at preincubation and ke is the disappearance rate constant of the unchanged drug. Subsequently, CLint, in vitro (μL min^−1·amount protein) values are converted to predicted CLint,in vivo (mL min^−1·kg^−1) from incubation parameters according to the equation CLint, in vivo=CLint, in vitro×(incubation volume (mL)/amount protein (mg))×(amount protein (mg)/g liver tissue)×(liver weight/body wt.).
For better across species comparison the predicted clearance is expressed as percent of the liver blood flow [% QH] (mL min^−1·kg^−1) in the individual species. In general, high stability (corresponding to low % QH) of the compounds across species is desired.

[6] = tested on: Ba/F3 cells KRAS G12V; assay: Ba/F3 proliferation assay (KRAS G12V); type: cell-based; conditions: Mus musculus, BaF3, 72 h, AlamarBlue viability
Description: as §1, §2

[7] = McIlvaine buffer pH 4.5, 24 h, read-out: solubility pH 4.5
[8] = McIlvaine buffer pH 6.8, 24 h, read-out: solubility pH 6.8

KRAS (G12D)::SOS1 protein-protein interaction, sequence (P01116 other isoform, or with tags, fused parts or gaps G12D): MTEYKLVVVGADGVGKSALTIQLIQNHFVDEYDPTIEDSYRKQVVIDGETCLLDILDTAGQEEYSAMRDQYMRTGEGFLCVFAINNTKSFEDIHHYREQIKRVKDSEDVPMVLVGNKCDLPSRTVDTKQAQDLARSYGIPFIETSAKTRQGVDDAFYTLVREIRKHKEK

IC50 [1] [nM] | IC50 [2] [nM] | IC50 [3] [nM] | solubility at 24 h [4, 7] [mg/mL] | solubility at 24 h [4, 8] [mg/mL] | HLM QH [5] [%] | IC50 [6] [nM] | SMILES
3 | 2 | 2 | > 0.148 | 0.053 (≈ 78.5 µM) | 63 | 1 | CO[C@H]1CCN(C)[C@@H]1[C@H](C)Oc1nc(-c2onc3c2CCC[C@@]32CCCc3sc(N)c(C#N)c32)nc2c1n(C)c(=O)n2[C@H]1CO[C@@H](C)C1 [I-48]
– | – | – | > 0.145 | 0.056 (≈ 83 µM) | 35 | – | CO[C@@H]1C[C@@H]([C@H](C)Oc2nc(-c3onc4c3CCC[C@@]43CCCc4sc(N)c(C#N)c43)nc3c2n(C)c(=O)n3[C@H]2CO[C@@H](C)C2)N(C)C1 [I-49]
19 | 6 | 1 | > 0.153 | 0.019 (≈ 28.2 µM) | 45 | 2 | C[C@@H]1COC[C@H](n2c(=O)n(C)c3c(O[C@@H](C)[C@@H]4CC[C@H](C)N4C)nc(-c4onc5c4CCC[C@@]54CCCc5sc(N)c(C#N)c54)nc32)C1 [I-53]

Reference: patent US20250019385A1, “SPIROCYCLIC ANNULATED 2-AMINO-3-CYANO THIOPHENES AND DERIVATIVES FOR THE TREATMENT OF CANCER” (Boehringer Ingelheim International GmbH, priority 2023, published 2025)
